Data set [1] is described as follows: Selectivity index, ratio of IC50 for human HFF cells to IC50 for antiplasmodial activity against Plasmodium falciparum 3D7 infected in human erythrocytes by HRP2-ELISA. It counts as toxicity, cell-based. To be noted: read-out: Ratio IC50. For orientation: An ELISA detects its analyte on a solid surface through an enzyme-linked reagent.
A short description of data set [2]: Selectivity index, ratio of IC50 for cytotoxicity against human THP-1 cells to IC50 for antiplasmodial activity against Plasmodium falciparum 3D7 infected in human erythrocytes by HRP2-ELISA. It counts as toxicity, cell-based. The following applies: read-out: Ratio IC50.
Data set [3] is described as follows: Selectivity index, ratio of IC50 for cytotoxicity against chinese hamster CHO cells to IC50 for antiplasmodial activity against Plasmodium falciparum 3D7 infected in human erythrocytes by HRP2-ELISA. It is filed as toxicity, cell-based. To be noted: read-out: Ratio IC50.
Data set [4] concerns Plasmodium falciparum. Put plainly: Selectivity index, ratio of IC50 for antiplasmodial activity against CQ-susceptible Plasmodium falciparum 3D7 to IC50 for antiplasmodial activity CQ-resistant Plasmodium falciparum W2 by HRP2-ELISA. It is filed as functional.
Data set [5] relates to Plasmodium falciparum. Put plainly: Antiplasmodial activity against CQ-resistant Plasmodium falciparum W2 assessed as inhibition of parasite growth measured after 48 hrs by SYBR Green 1 dye based fluorescence assay. The following applies: W2, 48 h. It counts as functional, organism-based.
A short description of data set [6]: Selectivity index, ratio of IC50 for cytotoxicity against human HepG2 cells to IC50 for antiplasmodial activity against Plasmodium falciparum 3D7 infected in human erythrocytes by HRP2-ELISA. It counts as toxicity, cell-based. The following applies: read-out: Ratio IC50.
Data set [7] has as its system Plasmodium falciparum. The experiment in a line: Selectivity index, ratio of IC50 for antiplasmodial activity against CQ-susceptible Plasmodium falciparum 3D7 to IC50 for antiplasmodial activity against CQ-resistant Plasmodium falciparum W2 by SYBR Green 1 dye based fluorescence assay. It counts as functional.
Data set [8] is described as follows: Cytotoxicity against human HFF cells assessed as reduction in cell viability incubated for 72 hrs by MTT assay. It counts as toxicity, cell-based. (Tetrazolium assays rely on reduction of a dye to a coloured formazan, in cell work by metabolically active cells.)
Data set [9] can be described thus: Cytotoxicity against Chinese hamster CHO cells assessed as reduction in cell viability incubated for 24 hrs by MTT assay. It counts as toxicity, cell-based, Cricetulus griseus.
Data set [10] deals with Plasmodium falciparum. The experiment in a line: Antiplasmodial activity CQ-resistant Plasmodium falciparum W2 infected in human erythrocytes assessed as inhibition of parasite growth measured after 72 hrs by HRP2-ELISA. It counts as functional, organism-based. To be noted: W2, Erythrocyte.
The nature of data set [11]: Cytotoxicity against human HepG2 cells assessed as reduction in cell viability incubated for 72 hrs by MTT assay. It is filed as toxicity, cell-based.
Data set [12] concerns Plasmodium falciparum. Put plainly: Antiplasmodial activity against CQ-susceptible Plasmodium falciparum 3D7 infected in human erythrocytes assessed as inhibition of parasite growth measured after 72 hrs by HRP2-ELISA. The following applies: 3D7, Erythrocyte. It counts as functional, organism-based.
In data set [13] the test system is Plasmodium falciparum. The experiment in a line: Antiplasmodial activity against CQ-susceptible Plasmodium falciparum 3D7 assessed as inhibition of parasite growth measured after 48 hrs by SYBR Green 1 dye based fluorescence assay. It is filed as functional, organism-based. The following applies: 3D7, 48 h.
Data set [14] in a line: Cytotoxicity against human THP-1 cells assessed as reduction in cell viability incubated for 72 hrs by MTT assay. It counts as toxicity, cell-based.

A value given as a limit tells only on which side of the number the result lay.

The record followed here is ChEMBL document CHEMBL5154649, “Design, synthesis, and characterization of novel aminoalcohol quinolines with strong in vitro antimalarial activity” (Eur J Med Chem, 2022).

A word on the IC50: it is the point on the concentration scale where inhibition reaches its midpoint.

As to `OC[C@H](Cc1ccccc1)NC[C@@H](O)c1cc(C(F)(F)F)nc2c(C(F)(F)F)cccc12`, the selectivity ratio came out at 437 in data set [1], 124 in data set [2], 511 in data set [3] and 188 in [6]. Also, the Ratio IC50 in data set [4] was found to be 1.5; in data set [7], 5.4. Further, the IC50 in data set [5] stood at 5.6 nM; in data set [10], 39.4 nM; in [12], 58.1 nM; in data set [13], 30.2 nM. Besides, the IC50 at 72 h in [8] is 25.4 µM; in [11], 10.9 µM; in data set [14] it was 7.2 µM. For the same compound, in data set [9], the IC50 at 24 h came out at 29.7 µM.

For `O[C@@H](CNCC1CC1)c1cc(C(F)(F)F)nc2c(C(F)(F)F)cccc12`, the selectivity ratio was determined as 2700 in data set [1], 693 in data set [2], 1420 in [3] and 369 in data set [6]. Also, the results for the Ratio IC50 in [4] and in data set [7] were 1.2 and 1.4, respectively. The IC50 in data set [5] stood at 16.8 nM; in data set [10], 15.3 nM; in data set [12], 17.9 nM; in data set [13] it was 23 nM. For the same compound, the IC50 at 72 h came to 48.4 µM in [8], 6.6 µM in data set [11] and 12.4 µM in data set [14]. Besides, the IC50 at 24 h in data set [9] was found to be 25.4 µM.

Turning to `O[C@H](CNCCNC(c1ccccc1)c1ccccc1)c1cc(C(F)(F)F)nc2c(C(F)(F)F)cccc12`, the selectivity ratio in data set [1] was 694; in data set [2], 372; in [3] it was 377; in data set [6] it was 268. Besides, the values for the Ratio IC50 in data set [4] and in [7] were 1.7 and 1.2, respectively. In addition, the 50% inhibitory concentration (IC50) in data set [5] is 29.6 nM; in data set [10] it was 14.1 nM; in [12], 23.9 nM; in data set [13] it was 35.2 nM. Besides, the IC50 at 72 h in data set [8] was 16.6 µM; in data set [11], 6.4 µM; in data set [14] it was 8.9 µM. Also, the IC50 at 24 h in data set [9] amounted to 9 µM.

As for `OC[C@@H](Cc1ccccc1)NC[C@H](O)c1cc(C(F)(F)F)nc2c(C(F)(F)F)cccc12`, the selectivity ratio in [1] amounted to 351; in data set [2], 73; in [3], 250; in data set [6] it was 158. Further, the Ratio IC50 is 1.7 in data set [4] and 0.7 in data set [7]. Besides, the IC50 in data set [5] turned out to be 54.3 nM; in data set [10] it was 63.8 nM; in data set [12], 106 nM; in data set [13], 36.2 nM. For the same compound, the IC50 at 72 h in data set [8] was 37.4 µM; in data set [11], 16.8 µM; in [14], 7.8 µM. The IC50 at 24 h in data set [9] was determined as 26.6 µM.

Consider `O[C@H](CNCC1CC1)c1cc(C(F)(F)F)nc2c(C(F)(F)F)cccc12`, for which the selectivity ratio amounted to 1430 in [1], 534 in [2], 2400 in data set [3] and 333 in data set [6]. For the same compound, the Ratio IC50 in data set [4] was 0.8; in data set [7], 1. The IC50 in [5] came to 4.1 nM; in data set [10] it was 15.8 nM; in [12], 12.9 nM; in data set [13] it was 4.1 nM. Also, the IC50 at 72 h turned out to be 18.5 µM in data set [8], 4.3 µM in data set [11] and 6.9 µM in data set [14]. The IC50 at 24 h in data set [9] amounted to 31 µM.

As for `O[C@@H](CNCCCC(F)(F)F)c1cc(C(F)(F)F)nc2c(C(F)(F)F)cccc12`, the selectivity ratio is 64 in [1], 144 in [2], 199 in [3] and 130 in data set [6]. Besides, the Ratio IC50 in data set [4] came out at 1; in data set [7] it was 0.9. Besides, the IC50 in data set [5] came out at 61 nM; in data set [10], 229 nM; in [12], 227 nM; in data set [13], 57.6 nM. The IC50 at 72 h in data set [8] was 14.6 µM; in [11], 29.7 µM; in data set [14], 32.8 µM. Besides, the IC50 at 24 h in [9] was determined as 45.4 µM.

In the case of `O[C@H](CNCCN1CCN(C(c2ccccc2)c2ccccc2)CC1)c1cc(C(F)(F)F)nc2c(C(F)(F)F)cccc12`, the selectivity ratio in [1] was found to be 114; in [2] it was 93; in data set [3], 213; in data set [6] it was 60. The Ratio IC50 came to 1.3 in [4] and 1.2 in data set [7]. The IC50 in data set [5] turned out to be 63 nM; in [10] it was 89.3 nM; in data set [12], 116 nM; in data set [13], 75.7 nM. For the same compound, the IC50 at 72 h in data set [8] was 13.3 µM; in data set [11], 7 µM; in [14], 10.8 µM. In [9], the IC50 at 24 h came to 24.8 µM.

Take `OC[C@@H](Cc1ccccc1)NC[C@@H](O)c1cc(C(F)(F)F)nc2c(C(F)(F)F)cccc12` (single isomer, unassigned): the selectivity ratio is 444 in [1], 73 in [2], 345 in [3] and 151 in [6]. In addition, the Ratio IC50 was 1.2 in data set [4] and 3.5 in [7]. The IC50 came out at 10.3 nM in [5], 82.7 nM in data set [10], 102 nM in [12] and 35.6 nM in [13]. Further, the IC50 at 72 h in [8] is 45.4 µM; in [11] it was 15.4 µM; in data set [14], 7.5 µM. In addition, the IC50 at 24 h in data set [9] came to 35.8 µM.

Take `COC[C@H](Cc1ccccc1)NC[C@H](O)c1cc(C(F)(F)F)nc2c(C(F)(F)F)cccc12`: the selectivity ratio in data set [1] was 1580; in data set [2], 728; in data set [3] it was 1620; in [6] it was 414. Also, the Ratio IC50 in data set [4] and in [7] was 1.5 throughout. Also, the IC50 in data set [5] stood at 11.4 nM; in data set [10], 15.4 nM; in [12], 23.2 nM; in [13], 17.4 nM. The IC50 at 72 h is 36.7 µM in data set [8], 9.6 µM in [11] and 16.9 µM in data set [14]. In addition, the IC50 at 24 h in [9] came out at 37.6 µM.

With `OC[C@H](Cc1ccccc1)NC[C@H](O)c1cc(C(F)(F)F)nc2c(C(F)(F)F)cccc12` (single isomer, unassigned), the selectivity ratio amounted to 718 in data set [1], 123 in data set [2], 470 in data set [3] and 303 in data set [6]. In addition, the Ratio IC50 in data set [4] was found to be 1.2; in data set [7], 9.4. Moreover, the IC50 in [5] was found to be 3.3 nM; in data set [10], 61.9 nM; in data set [12], 74.8 nM; in data set [13], 30.9 nM. Besides, the IC50 at 72 h in data set [8] was 53.7 µM; in [11] it was 22.7 µM; in data set [14], 9.2 µM. For the same compound, in data set [9], the IC50 at 24 h was 35.2 µM.

Consider `O[C@H](CNCCCC(F)(F)F)c1cc(C(F)(F)F)nc2c(C(F)(F)F)cccc12`, for which the selectivity ratio in [1] was 2310; in [2], greater than 8120; in data set [3] it was 2560; in data set [6] it was 493. For the same compound, the results for the Ratio IC50 in [4] and in [7] were 0.85 and 1.3, respectively. Moreover, the IC50 was found to be 8.55 nM in data set [5], 18.2 nM in data set [10], 15.4 nM in [12] and 11.4 nM in data set [13]. For the same compound, the IC50 at 72 h in data set [8] is 35.6 µM; in [11], 7.6 µM; in [14], greater than 125 µM. Further, in data set [9], the IC50 at 24 h was found to be 39.5 µM.
